Source: ChEMBL document CHEMBL3352388, “Active compounds from a diverse library of triazolothiadiazole and triazolothiadiazine scaffolds: synthesis, crystal structure determination, cytotoxicity, cholinesterase inhibitory activity, and binding mode analysis” (Bioorg Med Chem, 2014)

Assays:
NCI-H157 = test: Cytotoxicity against human NCI-H157 cells by sulforhodamine B assay; format: functional, cell-based
Vero = test: Cytotoxicity against African green monkey Vero cells by sulforhodamine B assay; format: cell-based; set-up: concentration or dose not given beside the values; details: chlorocebus sabaeus
Cholinesterase [1] = biological target: T1, Cholinesterase (Homo sapiens, UniProt P06276); test: Inhibition of human BChE by Ellman's method
[2] = biological target: Acetylcholinesterase (Electrophorus electricus) (UniProt O42275); test: Inhibition of electric eel AChE at 100 uM by Ellman's method
Acetylcholinesterase = Acetylcholinesterase (Electrophorus electricus, UniProt O42275); test: Inhibition of electric eel AChE by Ellman's method
Cholinesterase [3] = biological target: T1, Cholinesterase; test: Ratio of neostigmine IC50 to compound IC50 for human BChE

Acetylcholinesterase, sequence (O42275 whole entry): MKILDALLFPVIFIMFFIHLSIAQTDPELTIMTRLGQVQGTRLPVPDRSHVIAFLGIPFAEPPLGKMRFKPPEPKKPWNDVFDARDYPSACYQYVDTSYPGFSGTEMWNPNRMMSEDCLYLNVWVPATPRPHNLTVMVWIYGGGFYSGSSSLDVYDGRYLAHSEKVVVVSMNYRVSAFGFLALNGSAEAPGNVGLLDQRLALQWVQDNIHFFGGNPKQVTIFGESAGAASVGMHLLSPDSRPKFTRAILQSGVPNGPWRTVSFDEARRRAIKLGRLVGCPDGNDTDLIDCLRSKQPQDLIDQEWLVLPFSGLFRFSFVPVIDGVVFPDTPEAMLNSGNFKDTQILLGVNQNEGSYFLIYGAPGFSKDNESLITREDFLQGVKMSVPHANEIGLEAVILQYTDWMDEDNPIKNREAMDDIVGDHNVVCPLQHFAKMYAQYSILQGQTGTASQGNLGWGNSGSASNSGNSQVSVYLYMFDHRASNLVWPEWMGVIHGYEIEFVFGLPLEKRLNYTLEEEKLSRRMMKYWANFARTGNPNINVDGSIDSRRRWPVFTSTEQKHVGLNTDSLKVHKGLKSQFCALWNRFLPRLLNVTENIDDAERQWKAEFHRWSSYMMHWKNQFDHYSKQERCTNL
T1 sequence (P06276 whole entry): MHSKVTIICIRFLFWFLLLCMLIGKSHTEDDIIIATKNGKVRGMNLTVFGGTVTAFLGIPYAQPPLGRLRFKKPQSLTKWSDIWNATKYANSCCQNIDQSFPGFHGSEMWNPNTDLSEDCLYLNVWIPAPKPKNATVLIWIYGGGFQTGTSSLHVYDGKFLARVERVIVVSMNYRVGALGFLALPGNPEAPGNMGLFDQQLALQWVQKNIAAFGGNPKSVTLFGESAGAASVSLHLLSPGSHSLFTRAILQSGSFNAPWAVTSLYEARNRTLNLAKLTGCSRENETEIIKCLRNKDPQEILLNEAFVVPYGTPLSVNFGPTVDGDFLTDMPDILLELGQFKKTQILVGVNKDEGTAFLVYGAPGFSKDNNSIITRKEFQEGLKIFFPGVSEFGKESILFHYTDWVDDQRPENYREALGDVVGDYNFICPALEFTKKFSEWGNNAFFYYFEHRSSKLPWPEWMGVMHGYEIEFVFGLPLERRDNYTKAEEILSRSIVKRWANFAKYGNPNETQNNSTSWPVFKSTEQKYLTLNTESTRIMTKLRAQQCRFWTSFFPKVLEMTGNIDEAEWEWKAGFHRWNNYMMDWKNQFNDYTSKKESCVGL
Acetylcholinesterase (Electrophorus electricus), sequence (O42275 24-633 limits assumed): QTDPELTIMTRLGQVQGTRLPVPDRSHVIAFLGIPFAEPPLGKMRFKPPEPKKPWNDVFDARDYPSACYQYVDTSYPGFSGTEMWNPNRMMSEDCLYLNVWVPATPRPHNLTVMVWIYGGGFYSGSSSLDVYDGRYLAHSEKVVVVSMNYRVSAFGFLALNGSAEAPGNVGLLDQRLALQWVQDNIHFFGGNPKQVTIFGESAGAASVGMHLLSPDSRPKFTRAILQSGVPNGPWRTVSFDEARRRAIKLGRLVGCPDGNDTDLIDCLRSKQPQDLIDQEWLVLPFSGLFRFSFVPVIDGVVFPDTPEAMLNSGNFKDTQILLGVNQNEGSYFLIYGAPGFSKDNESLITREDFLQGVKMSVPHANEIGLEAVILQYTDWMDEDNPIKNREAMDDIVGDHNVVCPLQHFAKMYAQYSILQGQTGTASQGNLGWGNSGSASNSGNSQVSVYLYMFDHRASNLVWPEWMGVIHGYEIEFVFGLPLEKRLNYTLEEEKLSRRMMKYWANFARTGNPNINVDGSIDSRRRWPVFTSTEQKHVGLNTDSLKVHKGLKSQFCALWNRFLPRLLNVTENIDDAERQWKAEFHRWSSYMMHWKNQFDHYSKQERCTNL

Row | SMILES | IC50 (NCI-H157) [µM] | Activity (Vero) [%] | IC50 (Cholinesterase [1]) [µM] | inhibition [2] [%] | IC50 (Acetylcholinesterase) [µM] | Ratio IC50 (Cholinesterase [3])
1 | Fc1ccc(-c2nn3c(-c4cccnc4)nnc3s2)cc1Cl | 1.08 | 23.6 | 10.3 | 48.4 |  | 
2 | Cc1ccc(OCc2nn3c(-c4cccnc4)nnc3s2)cc1 | 2.98 | 23.8 | 4.76 |  | 11.3 | 
3 | Cc1ccc(C2=Nn3c(nnc3-c3cccnc3)SC2)cc1 | 3.87 | 27.3 | 25.4 | 28.7 |  | 
4 | Fc1ccc(OCc2nn3c(-c4cccnc4)nnc3s2)cc1 | 1.94 | 17.4 |  |  |  | 
5 | c1cncc(-c2nnc3sc(-c4ccco4)nn23)c1 | 3.16 | 23.9 | 6.03 |  | 21.2 | 
6 | CC[C@]1(O)C[C@H]2CN(CCc3c([nH]c4ccccc34)[C@@](C(=O)OC)(c3cc4c(cc3OC)N(C=O)[C@H]3[C@@](O)(C(=O)OC)[C@H](OC(C)=O)[C@]5(CC)C=CCN6CC[C@]43[C@@H]65)C2)C1 [VINCRISTINE] | 1.03 | 16.81 |  |  |  | 
7 | c1cncc(-c2nnc3sc(-c4ccc[nH]4)nn23)c1 | 5.14 | 19.2 | 13.7 |  | 13.7 | 
8 | O=[N+]([O-])c1ccc(C2=Nn3c(nnc3-c3cccnc3)SC2)cc1 | 1.42 | 10.7 | 1.09 |  | 18.3 | 15
9 | Oc1ccc(OCc2nn3c(-c4cccnc4)nnc3s2)cc1 | 3.01 | 20.4 | 0.585 |  | 3.09 | 
10 | c1ccc(-c2ccc(C3=Nn4c(nnc4-c4cccnc4)SC3)cc2)cc1 | 4.32 | 26.1 | 18.9 |  | 39.7 | 
11 | Fc1cc(Cl)ccc1-c1nn2c(-c3cccnc3)nnc2s1 | 1.87 | 26.7 | 37.4 | 36.2 |  | 
12 | CCOc1ccc(Cc2nn3c(-c4cccnc4)nnc3s2)cc1 | 2.92 | 22.5 | 70.7 | 38.4 |  | 
13 | Clc1ccc(C2=Nn3c(nnc3-c3cccnc3)SC2)cc1 | 3.94 | 21.1 | 9.82 |  | 15.1 | 
14 | c1cncc(-c2nnc3n2N=C(c2cccc4ccccc24)CS3)c1 | 5.37 | 23.1 | 15.9 | 17.2 |  | 
15 | Oc1ccccc1OCc1nn2c(-c3cccnc3)nnc2s1 | 3.67 | 22.7 | 3.02 |  | 35.5 | 
16 | COc1ccc(C2=Nn3c(nnc3-c3cccnc3)SC2)cc1 | 1.67 | 27.8 | 0.781 | 15.2 |  | 23
17 | CN(C)C(=O)Oc1cccc([N+](C)(C)C)c1 [NEOSTIGMINE] |  |  | 16.3 |  |  | 
18 | Cc1occc1-c1nn2c(-c3cccnc3)nnc2s1 | 2.93 | 24.3 | 58.6 |  | 37.7 | 
19 | Fc1ccc(C2=Nn3c(nnc3-c3cccnc3)SC2)cc1 | 1.85 | 18.4 | 4.92 | 40.8 |  | 
20 | Clc1ccc(C2=Nn3c(nnc3-c3cccnc3)SC2)cc1Cl | 0.96 | 22.2 | 64.8 |  | 38.5 | 
21 | c1cncc(-c2nnc3sc(-c4ccoc4)nn23)c1 | 3.41 | 28.4 |  |  |  | 
22 | Fc1ccc(Cc2nn3c(-c4cccnc4)nnc3s2)cc1 | 1.65 | 21.3 | 79.9 | 32.3 |  | 
23 | COc1ccc(OCc2nn3c(-c4cccnc4)nnc3s2)cc1 | 1.95 | 24.1 | 55.8 | 39.5 |  | 
24 | Cc1ccccc1OCc1nn2c(-c3cccnc3)nnc2s1 | 3.29 | 20.9 |  |  |  | 
